Measurements as given in US9255295B2, “Method for evaluating the sensitizing potential of a test compound” (IMMUNOSEARCH, priority 2010, dated 2016).

Tested on: genes specific for sensitization (BRAK, CTSS, DAPK2, FABP4, HSP27, IL18, HSP90, IL1R2, TPSAB1, CXCR1, DEFB1, DHFR, EHF, IVL, KRT4, MELANA, NGAL, PDZK1IP1, PI3 …)
Assay: Expression of the other (non-ARE) sensitization-specific genes in EPISKIN reconstructed skin (quantitative RT-PCR)
Assay type: cell-based, human

Oc1ccc(O)cc1 [Hydroquinone]
BRAK expression compared to control (0.1%): 0.7 | BRAK grade (NUMBER OF GENES) (0.1%): 0 (if this expression is lower, the grade is 0) | CTSS expression compared to control (0.1%): 0.7 | CTSS grade (NUMBER OF GENES) (0.1%): 0 (if this expression is lower, the grade is 0) | CXCR1 expression compared to control (0.1%): 2.9 | CXCR1 grade (NUMBER OF GENES) (0.1%): 1 (If the expression is greater than 1.3 compared to the control, a grade of 11s given) | DAPK2 expression compared to control (0.1%): 1.1 | DAPK2 grade (NUMBER OF GENES) (0.1%): 0 (if this expression is lower, the grade is 0) | DEFB1 expression compared to control (0.1%): 1.7 | DEFB1 grade (NUMBER OF GENES) (0.1%): 1 (If the expression is greater than 1.3 compared to the control, a grade of 11s given) | DHFR expression compared to control (0.1%): 0.4 | DHFR grade (NUMBER OF GENES) (0.1%): 0 (if this expression is lower, the grade is 0) | EHF expression compared to control (0.1%): 1.2 | EHF grade (NUMBER OF GENES) (0.1%): 0 (if this expression is lower, the grade is 0) | FABP4 expression compared to control (0.1%): 1.1 | FABP4 grade (NUMBER OF GENES) (0.1%): 0 (if this expression is lower, the grade is 0) | HSP27 expression compared to control (0.1%): 0.8 | HSP27 grade (NUMBER OF GENES) (0.1%): 0 (if this expression is lower, the grade is 0) | HSP90 expression compared to control (0.1%): 1.3 | HSP90 grade (NUMBER OF GENES) (0.1%): 0 (if this expression is lower, the grade is 0) | IL18 expression compared to control (0.1%): 0.8 | IL18 grade (NUMBER OF GENES) (0.1%): 0 (if this expression is lower, the grade is 0) | IVL expression compared to control (0.1%): 1.6 | IVL grade (NUMBER OF GENES) (0.1%): 1 (If the expression is greater than 1.3 compared to the control, a grade of 11s given) | KRT4 expression compared to control (0.1%): 2.0 | KRT4 grade (NUMBER OF GENES) (0.1%): 1 (If the expression is greater than 1.3 compared to the control, a grade of 11s given) | MELANA expression compared to control (0.1%): 0.7 | MELANA grade (NUMBER OF GENES) (0.1%): 0 (if this expression is lower, the grade is 0) | NGAL expression compared to control (0.1%): 1.5 | NGAL grade (NUMBER OF GENES) (0.1%): 1 (If the expression is greater than 1.3 compared to the control, a grade of 11s given) | P13 expression compared to control (0.1%): 1.1 | P13 grade (NUMBER OF GENES) (0.1%): 0 (if this expression is lower, the grade is 0) | PDZK1iP1 expression compared to control (0.1%): 1.2 | PDZK1iP1 grade (NUMBER OF GENES) (0.1%): 0 (if this expression is lower, the grade is 0) | SENS >1.3 (NUMBER OF GENES) (0.1%): 2 | SERPINB3 expression compared to control (0.1%): 1.1 | SERPINB3 grade (NUMBER OF GENES) (0.1%): 0 (if this expression is lower, the grade is 0) | TOTAL SENS (NUMBER OF GENES) (0.1%): 5 | BRAK expression compared to control (1%): 0.8 | BRAK grade (NUMBER OF GENES) (1%): 0 (if this expression is lower, the grade is 0) | CTSS expression compared to control (1%): 1.2 | CTSS grade (NUMBER OF GENES) (1%): 0 (if this expression is lower, the grade is 0) | CXCR1 expression compared to control (1%): 2.8 | CXCR1 grade (NUMBER OF GENES) (1%): 1 (If the expression is greater than 1.3 compared to the control, a grade of 11s given) | DAPK2 expression compared to control (1%): 1.2 | DAPK2 grade (NUMBER OF GENES) (1%): 0 (if this expression is lower, the grade is 0) | DEFB1 expression compared to control (1%): 1.1 | DEFB1 grade (NUMBER OF GENES) (1%): 0 (if this expression is lower, the grade is 0) | DHFR expression compared to control (1%): 0.8 | DHFR grade (NUMBER OF GENES) (1%): 0 (if this expression is lower, the grade is 0) | EHF expression compared to control (1%): 1.1 | EHF grade (NUMBER OF GENES) (1%): 0 (if this expression is lower, the grade is 0) | FABP4 expression compared to control (1%): 1.1 | FABP4 grade (NUMBER OF GENES) (1%): 0 (if this expression is lower, the grade is 0) | HSP27 expression compared to control (1%): 0.9 | HSP27 grade (NUMBER OF GENES) (1%): 0 (if this expression is lower, the grade is 0) | HSP90 expression compared to control (1%): 1.1 | HSP90 grade (NUMBER OF GENES) (1%): 0 (if this expression is lower, the grade is 0) | IL18 expression compared to control (1%): 0.8 | IL18 grade (NUMBER OF GENES) (1%): 0 (if this expression is lower, the grade is 0) | IVL expression compared to control (1%): 1.5 | IVL grade (NUMBER OF GENES) (1%): 1 (If the expression is greater than 1.3 compared to the control, a grade of 11s given) | KRT4 expression compared to control (1%): 1.5 | KRT4 grade (NUMBER OF GENES) (1%): 1 (If the expression is greater than 1.3 compared to the control, a grade of 11s given) | MELANA expression compared to control (1%): 0.7 | MELANA grade (NUMBER OF GENES) (1%): 0 (if this expression is lower, the grade is 0) | NGAL expression compared to control (1%): 1.7 | NGAL grade (NUMBER OF GENES) (1%): 1 (If the expression is greater than 1.3 compared to the control, a grade of 11s given) | P13 expression compared to control (1%): 1.2 | P13 grade (NUMBER OF GENES) (1%): 0 (if this expression is lower, the grade is 0) | PDZK1iP1 expression compared to control (1%): 1.0 | PDZK1iP1 grade (NUMBER OF GENES) (1%): 0 (if this expression is lower, the grade is 0) | SENS >1.3 (NUMBER OF GENES) (1%): 5 | SERPINB3 expression compared to control (1%): 1.0 | SERPINB3 grade (NUMBER OF GENES) (1%): 0 (if this expression is lower, the grade is 0) | TOTAL SENS (NUMBER OF GENES) (1%): 5 | BRAK expression compared to control (10%): 0.8 | BRAK grade (NUMBER OF GENES) (10%): 0 (if this expression is lower, the grade is 0)
